Source: patent US10017487B2, “Fused heterocyclic compound” (Takeda Pharmaceutical Company Limited, priority 2015, dated 2018)
Where a name gives a salt, the structure may show the parent alone.

What was measured:
DIO mouse = assay: Anti-obesity effect test using DIO mouse; assay type: in vivo; conditions: DIO mice, group average
Method: Diet-induced obesity (DIO) mice (D12079B diet, male, 32-week old) were orally administered with a 0.5% methyl cellulose suspension containing a test compound (30 mg/kg) (compound administration group, six mice per group) or a 0.5% methyl cellulose suspension (compound non-administration group (vehicle), six mice per group) once a day for eight days. The averages of the body weights at the start of administration and after continuous administration for eight days are shown below.

HFD-fed mouse = assay: Fecal protein concentration-increasing test using HFD-fed mouse; assay type: in vivo; conditions: HFD-fed mice, 10 mg/kg oral, whole feces of first day of administration, group average
Method: High fat diet-fed (HFD-fed) mice (D12079B diet, male, 19-week old) were orally administered with a 0.5% methyl cellulose suspension containing a test compound (10 mg/kg) (compound administration group, six mice per group) or a 0.5% methyl cellulose suspension (compound non-administration group (vehicle), five mice per group), and whole feces were collected on the first day of administration. Dried feces were dissolved in 0.5 N NaOH, followed by centrifugation at 12,000 rpm. The protein concentration in the supernatant was then quantitatively measured (Lowry method), and the amount of protein contained in 1 g of feces was calculated as the fecal protein concentration (mg/g feces). The average of each group is shown below.

[1] = target: T1, Human recombinant enteropeptidase (Homo sapiens, UniProt P98073); assay: Human enteropeptidase inhibitory activity; assay type: biochemical; conditions: 3.3 μM test compound; fluorescence intensity at 2 hours after start of reaction; read-out: Inhibition rate at 3.3 μM
T1 construct: purchased ITSI-Biosciences LLC #REN-260
T1 sequence (P98073 whole entry): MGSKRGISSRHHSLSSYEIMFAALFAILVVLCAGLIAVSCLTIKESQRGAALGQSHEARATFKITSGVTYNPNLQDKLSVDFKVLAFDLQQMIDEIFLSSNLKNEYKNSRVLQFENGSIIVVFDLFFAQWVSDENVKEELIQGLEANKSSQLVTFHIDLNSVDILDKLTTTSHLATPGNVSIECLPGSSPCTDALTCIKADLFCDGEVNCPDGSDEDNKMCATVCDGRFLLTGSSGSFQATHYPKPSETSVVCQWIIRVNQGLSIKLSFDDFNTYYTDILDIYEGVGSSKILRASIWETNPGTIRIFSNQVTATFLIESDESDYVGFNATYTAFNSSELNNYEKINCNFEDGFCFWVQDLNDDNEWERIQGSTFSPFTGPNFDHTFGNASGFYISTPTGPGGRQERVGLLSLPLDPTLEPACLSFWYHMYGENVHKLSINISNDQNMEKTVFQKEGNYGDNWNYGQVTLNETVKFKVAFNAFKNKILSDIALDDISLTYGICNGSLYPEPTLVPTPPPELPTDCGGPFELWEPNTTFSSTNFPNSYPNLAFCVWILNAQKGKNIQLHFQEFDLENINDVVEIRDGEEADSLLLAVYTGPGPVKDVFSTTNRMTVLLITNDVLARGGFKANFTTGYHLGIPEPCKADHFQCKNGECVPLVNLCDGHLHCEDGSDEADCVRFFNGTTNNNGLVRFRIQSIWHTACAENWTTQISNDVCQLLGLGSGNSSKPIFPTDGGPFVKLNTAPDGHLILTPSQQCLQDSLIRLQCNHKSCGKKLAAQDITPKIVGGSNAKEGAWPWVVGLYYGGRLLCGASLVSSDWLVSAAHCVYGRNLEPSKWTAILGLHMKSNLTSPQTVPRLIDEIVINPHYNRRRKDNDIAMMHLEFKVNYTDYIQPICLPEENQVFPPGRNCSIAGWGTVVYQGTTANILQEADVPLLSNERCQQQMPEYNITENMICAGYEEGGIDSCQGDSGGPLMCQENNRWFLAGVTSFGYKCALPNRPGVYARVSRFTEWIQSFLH
Method: Human recombinant enteropeptidase (#REN-260, ITSI-Biosciences LLC) was diluted with an assay buffer (50 mM Tricine, pH 8.0, 0.01 (w/v) %, Tween 20, 10 mM CaCl2) to prepare a 24 mU/mL enzyme solution. Subsequently, 5FAM-Abu-Gly-Asp-Asp-Asp-Lys-Ile-Val-Gly-Gly-Lys(CPQ2)-Lys-Lys-NH2 (purity: 97.2%, CPC Scientific Inc., SEQ ID NO: 1) was diluted with the assay buffer to prepare a 2.1 μM substrate solution. A test compound is dissolved in DMSO into a 1 mM solution, and the solution was diluted by 100-fold with the assay buffer to give a compound solution. To a 384-well black plate (#784076, Greiner Bio-One), 5 μL of the compound solution and 5 μL of the substrate solution were added and mixed, and 5 μL of the enzyme solution was then added to the mixture, followed by mixing to start the reaction. The fluorescence intensity was measured with a fluorescence plate reader EnVision (The Perkin-Elmer Corp.) at an excitation wavelength of 485 nm and a fluorescence wavelength of 535 nm. The same reaction as above except that the test compound was not contained was performed (test compound non-addition group). Furthermore, the same reaction as above except that the test compound and the enzyme were not contained was performed (control group). The inhibition rate was calculated using the fluorescence intensity at 2 hours after the start of the reaction by the following expression: Inhibition rate (%)=(1-((fluorescence intensity of test compound addition group)−(fluorescence intensity of control group))/((fluorescence intensity of test compound non-addition group)−(fluorescence intensity of control group)))×100

| Structure (SMILES) | Body weight (g) After continuous administration for 8 days (DIO mouse; 30 mg/kg oral once a day for eight days) | Body weight (g) At start of administration (DIO mouse; 30 mg/kg oral once a day, baseline) | Fecal protein concentration (HFD-fed mouse) | inhibition at 3.3 µM [1] |
| --- | --- | --- | --- | --- |
| N=C(N)Nc1ccc(C(=O)Oc2cc3c(c(C(=O)NCCS(=O)(=O)O)c2)CCO3)cc1 [Example 1, 2-(((6-((4-Carbamimidamidobenzoyl)oxy)-2,3-dihydro-1-benzofuran-4-yl)carbonyl)amino)ethanesulfonic acid] | 42.8 g | 43.5 g | 188.8 mg/g feces | 101% |
| N=C(N)Nc1ccc(C(=O)Oc2cc3c(c(C(=O)NCCCS(=O)(=O)O)c2)CCO3)cc1 [Example 2, 3-(((6-((4-carbamimidamindobenzoyl)oxy)-2,3-dihydro-1-benzofuran-4-yl)carbonyl)amino)propane-1-sulfonic acid] |  |  |  | 101% |
| N=C(N)Nc1ccc(C(=O)Oc2cc3c(c(C(=O)NCS(=O)(=O)O)c2)CCO3)cc1 [Example 3, (((6-((4-carbamimidamindobenzoyl)oxy)-2,3-dihydro-1-benzofuran-4-yl)carbonyl)amino)methanesulfonic acid] |  |  |  | 101% |
| N=C(N)Nc1ccc(C(=O)Oc2cc3c(c(C(=O)NCP(=O)(O)O)c2)CCO3)cc1 [Example 4, ((((6-((4-Carbamimidamidobenzoyl)oxy)-2,3-dihydro-1-benzofuran-4-yl)carbonyl)amino)methyl)phosphonic acid hydrochloride] |  |  |  | 101% |
| CC1(C)Cc2c(cc(OC(=O)c3ccc(NC(=N)N)cc3)cc2C2=NOC(CC(=O)O)(C(=O)O)C2)O1 (stereo not drawn) [Example 5, 3-(6-((4-carbamimidamindobenzoyl)oxy)-2,2-dimethyl-2,3-dihydro-1-benzofuran-4-yl)-5-(carboxymethyl)-4,5-dihydro-1,2-oxazole-5-carboxylic acid] |  |  |  | 100% |
| N=C(N)Nc1ccc(C(=O)Oc2cc3c(c(C4=NOC(CC(=O)O)(C(=O)O)C4)c2)CCO3)cc1 (stereo not drawn) [Example 6, 3-(6-((4-Carbamimidamidobenzoyl)oxy)-2,3-dihydro-1-benzofuran-4-yl)-5-(carboxymethyl)-4,5-dihydro-1,2-oxazole-5-carboxylic acid] |  |  |  | 101% |
